Experimental data taken from ChEMBL document CHEMBL1128889, “Preparation and biological evaluation of -Trifluoromethyl-,-unsaturated carbonyl compounds” (Bioorg Med Chem Lett, 1995).
≈ marks a conversion by molar mass, not a printed value.

Assay: In vitro viable cell inhibitory towards interleukin-2 antiproducing effect was determined.
Assay type: functional

Row | Compound | IC50 [µg/mL]
1 | CC1(C)OC[C@H]([C@H](OC(=O)/C=C/C(F)(F)F)[C@@H](OC(=O)/C=C/C(F)(F)F)[C@H]2COC(C)(C)O2)O1 | 0.8 (≈ 1.58 µM)
2 | CC1(C)COC(=O)[C@@H]1OC(=O)/C=C/C(F)(F)F | 3.71 (≈ 14.7 µM)
